This note sets out measurements from patent US20040132771A1, “Compositions of choleseteryl ester transfer protein inhibitors and HMG-CoA reductase inhibitors” (Pfizer Inc, priority 2002, published 2004).

Common to all, as to assay type: physicochemical
The nature of data set [1]: in vitro dissolution test using a syringe method (Drug 2). The conditions noted are these: for AUC / Drug 2 Concentration: PBS pH 6.5, 2 wt % NaTC/POPC. The protocol: An 8.0 mg sample of the adsorbate was added to 40 mL phosphate buffered saline (PBS) at pH 6.5 and 290 mOsm/kg, containing 2 wt % sodium taurocholic acid and 1-palmitoyl-2-oleyl-sn-glycero-3-phosphocholine (NaTC/POPC, with a 4/1 weight ratio). The concentration of drug would have been 50 μg/mL, if all of the drug had dissolved. The test solution was stirred at room temperature in a syringe equipped with a Gelman Acrodisc 13 CR 0.45 μm PTFE filter. At each sample time, about 2 mL of the test solution was pushed through the filter and analyzed using UV at a wavelength of 256 nm to determine the concentration of torcetrapib in solution. […] Crystalline torcetrapib alone is shown as a comparison.
Crystalline Drug 2 alone is shown as a comparison. In all cases, a sufficient amount of sample was added so that the concentration of drug would have been 50 μg/mL, if all of the drug had dissolved.

A short description of data set [2]: in vitro dissolution test using a syringe method (torcetrapib). To be noted: for Torcetrapib Concentration / AUC: PBS pH 6.5, 2 wt % NaTC/POPC. The protocol: An 8.0 mg sample of the adsorbate was added to 40 mL phosphate buffered saline (PBS) at pH 6.5 and 290 mOsm/kg, containing 2 wt % sodium taurocholic acid and 1-palmitoyl-2-oleyl-sn-glycero-3-phosphocholine (NaTC/POPC, with a 4/1 weight ratio). The concentration of drug would have been 50 μg/mL, if all of the drug had dissolved. The test solution was stirred at room temperature in a syringe equipped with a Gelman Acrodisc 13 CR 0.45 μm PTFE filter. At each sample time, about 2 mL of the test solution was pushed through the filter and analyzed using UV at a wavelength of 256 nm to determine the concentration of torcetrapib in solution. Samples were collected at 1, 2, 3, 5, 10, 15, 20, 30, 45, 60, and 90 minutes. Crystalline torcetrapib alone is shown as a comparison.
The dissolution rate constant was obtained by performing a least squares fit of the experimental data using the following equation: […]
In this test, 7.855 mg of the Solid Amorphous Adsorbate 2 was added to 40 mL phosphate buffered saline (PBS) at pH 6.5 and 290 mOsm/kg, containing 2 wt % NaTC/POPC (the concentration of drug would have been 49 μg/mL, if all of the drug had dissolved).

Data set [3] in a line: aqueous solubility of torcetrapib.

Structures are written as SMILES. Bounds are passed on as bounds.

The AUC is concentration integrated over time. A higher AUC goes with more exposure. Take `CC[C@@H]1C[C@H](N(Cc2cc(C(F)(F)F)cc(C(F)(F)F)c2)C(=O)OC)c2cc(C(F)(F)F)ccc2N1C(=O)OC(C)C` [Drug 2, [2R,4S]4-[(3,5-bis-trifluoromethyl-benzyl)-methoxycarbonyl-amino]-2-ethyl-6-trifluoromethyl-3,4-dihydro-2H-quinoline-1-carboxylic acid isopropyl ester]: the “Dissolution Rate Constant, k” value in data set [1] (Drug 2) turned out to be 0.005 min⁻¹. The molecule also displayed an AUC90 in data set [1] (Drug 2, area under the aqueous concentration versus time curve after 90 minutes) of 383 µg·min/mL. In addition, the area under the curve (AUC) came out at 0 µg·min/mL in data set [1] (Drug 2, time 0 min); 0 µg·min/mL in data set [1] (Drug 2, time 0.5 min); 2.6 µg·min/mL in data set [1] (Drug 2, time 5 min); 17 µg·min/mL in data set [1] (Drug 2, time 15 min); 111 µg·min/mL in data set [1] (Drug 2, time 45 min); 383 µg·min/mL in data set [1] (Drug 2, time 90 min). The molecule further came in with an MDC90 in data set [1] (maximum concentration of Drug 2 in solution during the first 90 minutes) of 7.6 µg/mL. The “Drug 2 Concentration” value was 0 µg/mL in data set [1] (time 0 min); 0.1 µg/mL in data set [1] (time 0.5 min); 1.0 µg/mL in data set [1] (time 5 min); 1.8 µg/mL in data set [1] (time 15 min); 4.5 µg/mL in data set [1] (time 45 min); 7.6 µg/mL in data set [1] (time 90 min).
By solubility is commonly meant how much of the substance goes into solution per volume. Turning to `CCOC(=O)N1c2ccc(C(F)(F)F)cc2[C@@H](N(Cc2cc(C(F)(F)F)cc(C(F)(F)F)c2)C(=O)OC)C[C@H]1CC` [torcetrapib, [2R,4S]-4-[(3,5-bis-trifluoromethyl-benzyl)-methoxycarbonyl-amino]-2-ethyl-6-trifluoromethyl-3,4-dihydro-2H-quinoline-1-carboxylic acid ethyl ester], in data set [2] (maximum concentration of torcetrapib in solution during the first 90 minutes), the “MDCmax,90” value is <0.5 µg/mL. Further, the “Torcetrapib Concentration” value in data set [2] (time 0 min), in data set [2] (time 1 min), in data set [2] (time 2 min), in data set [2] (time 3 min), in data set [2] (time 5 min) and in data set [2] (time 10 min) was <0.5 µg/mL throughout. The “Torcetrapib Concentration” value in data set [2] (time 15 min), in data set [2] (time 20 min), in data set [2] (time 30 min), in data set [2] (time 45 min), in data set [2] (time 60 min) and in data set [2] (time 90 min) was <0.5 µg/mL in each case. The AUC90 in data set [2] (torcetrapib, area under the aqueous concentration versus time curve after 90 minutes) is reported as <45 min-μg/mL. The “Dissolution Rate Constant, k” value in data set [2] (torcetrapib, least squares fit of [D]t=[D]o(1−e^−kt)) is <0.0005 min⁻¹. Moreover, the AUC in data set [2] (torcetrapib, time 0 min) is 0 µg·min/mL; in data set [2] (torcetrapib, time 1 min), 0 µg·min/mL; in data set [2] (torcetrapib, time 2 min), <1 µg·min/mL; in data set [2] (torcetrapib, time 3 min), <1 µg·min/mL; in data set [2] (torcetrapib, time 5 min) it was <2 µg·min/mL; in data set [2] (torcetrapib, time 10 min), <5 µg·min/mL. Moreover, the AUC in data set [2] (torcetrapib, time 15 min) was <7 µg·min/mL; in data set [2] (torcetrapib, time 20 min), <10 µg·min/mL; in data set [2] (torcetrapib, time 30 min) it was <15 µg·min/mL; in data set [2] (torcetrapib, time 45 min) it was <22 µg·min/mL; in data set [2] (torcetrapib, time 60 min), <30 µg·min/mL; in data set [2] (torcetrapib, time 90 min), <45 µg·min/mL. Also, in data set [3], the solubility is < 0.04 µg/mL.
